Test results: the NIST ThermoML archive (doi:10.1021/je800418m)
“And” between values parts separate entries of the source, which are not always exact repeats. Identical values can stand only once. ± gives the expanded uncertainty stated by the source.

Conditions: Crystal

N.O=C(O)C(F)(F)C(F)(F)C(F)(F)C(F)(F)C(F)(F)C(F)(F)C(F)(F)F [ammonium perfluorooctanoate]
Conditions | vapor or sublimation pressure
318.35 K | 3e-05 ± 1e-05 kPa
318.45 K | 2e-05 ± 1e-05 kPa
318.55 K | 3e-05 ± 1e-05 kPa and 5e-05 ± 2e-05 kPa
318.75 K | 1e-05 ± 1e-05 kPa
318.85 K | 7e-05 ± 3e-05 kPa
328.25 K | 7e-05 ± 3e-05 kPa
328.35 K | 6e-05 ± 3e-05 kPa
328.45 K | 6e-05 ± 3e-05 kPa
328.65 K | 9e-05 ± 4e-05 kPa and 0.00019 ± 8e-05 kPa
328.75 K | 4e-05 ± 2e-05 kPa and 9e-05 ± 4e-05 kPa and 6e-05 ± 3e-05 kPa
328.85 K | 0.00014 ± 6e-05 kPa and 6e-05 ± 3e-05 kPa and 0.00011 ± 5e-05 kPa
333.15 K | 9e-05 ± 4e-05 kPa
333.35 K | 0.00023 ± 9e-05 kPa
333.65 K | 0.00013 ± 5e-05 kPa [middle of 4 runs]
333.75 K | 0.00021 ± 9e-05 kPa
